From patent EP2790511B1 (Merck Sharp & Dohme Corp., priority 2011, dated 2013)

molecular target: T1, hROMK (hKir1.1) (Homo sapiens, UniProt P48048); test: Thallium Flux Assay; assay type: cell-based; conditions: HEK293 cells stably expressing hROMK (hKir1.1), FLIPR-Tetra; read-out: Thallium Flux IC50
T1 construct: expressed in transfected cells
T1 sequence (P48048 1-391): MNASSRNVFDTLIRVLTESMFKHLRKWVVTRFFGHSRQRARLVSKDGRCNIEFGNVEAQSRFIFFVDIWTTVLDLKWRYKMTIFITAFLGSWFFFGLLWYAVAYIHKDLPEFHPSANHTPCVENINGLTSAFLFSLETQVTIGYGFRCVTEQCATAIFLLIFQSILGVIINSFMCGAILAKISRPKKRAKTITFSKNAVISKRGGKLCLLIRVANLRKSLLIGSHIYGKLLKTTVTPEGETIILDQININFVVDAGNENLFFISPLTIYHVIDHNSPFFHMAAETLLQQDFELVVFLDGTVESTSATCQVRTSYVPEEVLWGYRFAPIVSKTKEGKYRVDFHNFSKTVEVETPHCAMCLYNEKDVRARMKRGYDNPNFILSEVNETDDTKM
Summary of the method: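 HEK293 cells stably expressing hROMK, loaded with FluxOR dye 90 min at ambient temperature, then compound 30 min with 0.3 mM ouabain in probenecid buffer pH 7.4.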

SMILES	IC50 [µM]
COc1cc([C@H]2CN3CCN(C(=O)Cc4cnc(-n5cnnn5)nc4)C[C@H]3CO2)ccc1C#N [Example 143, 2-methoxy-4-[(3S,9aS)-8-{[2-(1H-tetrazol-1-yl)pyrimidin-5-yl]acetyl}octahydropyrazino[2,1-c][1,4]oxazin-3-yl]benzonitrile]	0.19
COc1cc([C@@H]2CN3CCN(C(=O)Cc4cnc(-n5cnnn5)nc4)C[C@H]3CO2)ccc1C#N [Example 144, 2-methoxy-4-[(3R,9aS)-8-{[2-(1H-tetrazol-1-yl)pyrimidin-5-yl]acetyl}octahydropyrazino[2,1-c][1,4]oxazin-3-yl]benzonitrile]	0.39
Cc1c([C@@H]2CN3CCN(C(=O)Cc4cnc(-n5cnnn5)c(F)c4)C[C@@H]3CO2)ccc(F)c1C#N [Example 146, 6-fluoro-3-[(3R,9aR)-8-{[5-fluoro-6-(1H-tetrazol-1-yl)pyridin-3-yl]acetyl}octahydropyrazino[2,1-c][1,4]oxazin-3-yl]-2-methylbenzonitrile]	0.09
Cc1c([C@H]2CN3CCN(C(=O)Cc4cnc(-n5cnnn5)c(F)c4)C[C@@H]3CO2)ccc(F)c1C#N [Example 147, 6-fluoro-3-[(3S,9aR)-8-{[5-fluoro-6-(1H-tetrazol-1-yl)pyridin-3-yl]acetyl}octahydropyrazino[2,1-c][1,4]oxazin-3-yl]-2-methylbenzonitrile]	0.14
Cc1c([C@@H]2CN3CCN(C(=O)Cc4cnc(-n5cnnn5)c(F)c4)C[C@H]3CO2)ccc(F)c1C#N [Example 148, 6-fluoro-3-[(3R,9aS)-8-{[5-fluoro-6-(1H-tetrazol-1-yl)pyridin-3-yl]acetyl}octahydropyrazino[2,1-c][1,4]oxazin-3-yl]-2-methylbenzonitrile]	0.08
Cc1c([C@H]2CN3CCN(C(=O)Cc4cnc(-n5cnnn5)c(F)c4)C[C@H]3CO2)ccc(F)c1C#N [Example 149, 6-fluoro-3-[(3S,9aS)-8-{[5-fluoro-6-(1H-tetrazol-1-yl)pyridin-3-yl]acetyl}octahydropyrazino[2,1-c][1,4]oxazin-3-yl]-2-methylbenzonitrile]	0.13
Cc1nc(-n2cnnn2)nc(C)c1CC(=O)N1CCN2C[C@H](c3ccc(F)c(C#N)c3C)OC[C@@H]2C1 [Example 150, 3-[(3S,9aS)-8-{[4,6-dimethyl-2-(1H-tetrazol-1-yl)pyrimidin-5-yl]acetyl}octahydropyrazino[2,1-c][1,4]oxazin-3-yl]-6-fluoro-2-methylbenzonitrile]	0.29
Cc1nc(-n2cnnn2)nc(C)c1CC(=O)N1CCN2C[C@@H](c3ccc(F)c(C#N)c3C)OC[C@H]2C1 [Example 152, 3-[(3R,9aR)-8-{[4,6-dimethyl-2-(1H-tetrazol-1-yl)pyrimidin-5-yl]acetyl}octahydropyrazino[2,1-c][1,4]oxazin-3-yl]-6-fluoro-2-methylbenzonitrile]	0.2
Cc1c([C@H]2CN3CCN(C(=O)Cc4ccc(-n5cnnn5)nn4)C[C@H]3CO2)ccc(F)c1C#N [Example 155, 6-fluoro-2-methyl-3-[(3S,9aS)-8-{[6-(1H-tetrazol-1-yl)pyridazin-3-yl]acetyl}octahydropyrazino [2,1-c][1,4]oxazin-3-yl]benzonitrile]	0.3
Cc1c([C@H]2CN3CCN(C(=O)Cc4cnc(-n5cnnn5)nc4C(F)(F)F)C[C@H]3CO2)ccc(F)c1C#N [Example 158, 6-fluoro-2-methyl-3-[(3S,9aS)-8-{[2-(1H-tetrazol-1-yl)-4-(trifluoromethyl)pyrimidin-5-yl]acetyl}octahydropyrazino[2,1-c][1,4]oxazin-3-yl]benzonitrile]	0.2
Cc1c([C@@H]2CN3CCN(C(=O)Cc4cnc(-n5cnnn5)nc4C(F)(F)F)C[C@H]3CO2)ccc(F)c1C#N [Example 159, 6-fluoro-2-methyl-3-[(3R,9aS)-8-{[2-(1H-tetrazol-1-yl)-4-(trifluoromethyl)pyrimidin-5-yl]acetyl}octahydropyrazino[2,1-c][1,4]oxazin-3-yl]benzonitrile]	0.26
Cc1c([C@H]2CN3CCN(C(=O)Cc4cccc(-n5cnnn5)n4)C[C@@H]3CO2)ccc(F)c1C#N [Example 160, 6-fluoro-2-methyl-3-[(3S,9aR)-8-{[6-(1H-tetrazol-1-yl)pyridin-2-yl]acetyl}octahydropyrazino[2,1-c][1,4]oxazin-3-yl]benzonitrile]	0.39
Cc1c([C@@H]2CN3CCN(C(=O)Cc4cccc(-n5cnnn5)n4)C[C@@H]3CO2)ccc(F)c1C#N [Example 161, 6-fluoro-2-methyl-3-[(3R,9aR)-8-{[6-(1H-tetrazol-1-yl)pyridin-2-yl]acetyl}octahydropyrazino[2,1-c][1,4]oxazin-3-yl]benzonitrile]	0.35
Cc1c([C@@H]2CN3CCN(C(=O)Cc4ccc(-n5cnnn5)nc4)C[C@H]3CS2)ccc2c1COC2=O [Example 166, 4-methyl-5-[(3R,9aS)-8-{[6-(1H-tetrazol-1-yl)pyridin-3-yl]acetyl}octahydropyrazino[2,1-c][1,4]thiazin-3-yl]-2-benzofuran-1(3H)-one]	0.38

same assay, conditions: Thallium Flux IC50

SMILES	IC50 [µM]
O=C1OCCc2cc([C@@H]3CN4CCN(C(=O)Cc5cnc(-n6cnnn6)nc5)C[C@H]4CO3)ccc21 [Example 145, 6-[(3R,9aS)-8-{[2-(1H-tetrazol-1-yl)pyrimidin-5-yl]acetyl}octahydropyrazino[2,1-c][1,4]oxazin-3-yl]-3,4-dihydro-1H-isochromen-1-one]	0.24
Cc1nc(-n2cnnn2)nc(C)c1CC(=O)N1CCN2C[C@H](c3ccc(F)c(C#N)c3C)OC[C@H]2C1 [Example 151, 3-[(3S,9aR)-8-{[4,6-dimethyl-2-(1H-tetrazol-1-yl)pyrimidin-5-yl]acetyl}octahydropyrazino[2,1-c][1,4]oxazin-3-yl]-6-fluoro-2-methylbenzonitrile]	0.3
Cc1c([C@H]2CN3CCN(C(=O)Cc4ncc(-n5cnnn5)cc4Cl)C[C@H]3CO2)ccc(F)c1C#N [Example 153, 3-[(3S,9aS)-8-{[3-chloro-5-(1H-tetrazol-1-yl)pyridin-2-yl]acetyl}octahydropyrazino[2,1-c][1,4]oxazin-3-yl]-6-fluoro-2-methylbenzonitrile]	0.17
Cc1c([C@@H]2CN3CCN(C(=O)Cc4ncc(-n5cnnn5)cc4Cl)C[C@@H]3CO2)ccc(F)c1C#N [Example 154, 3-[(3R,9aR)-8-{[3-chloro-5-(1H-tetrazol-1-yl)pyridin-2-yl]acetyl}octahydropyrazino[2,1-c][1,4]oxazin-3-yl]-6-fluoro-2-methylbenzonitrile]	0.2
Cc1c([C@@H]2CN3CCN(C(=O)Cc4ccc(-n5cnnn5)nn4)C[C@@H]3CO2)ccc(F)c1C#N [Example 156, 6-fluoro-2-methyl-3-[(3R,9aR)-8-{[6-(1H-tetrazol-1-yl)pyridazin-3-yl]acetyl}octahydropyrazino [2,1-c][1,4]oxazin-3-yl]benzonitrile]	0.21
Cc1c([C@@H]2CN3CCN(C(=O)Cc4ccc(-n5nnnc5C)cn4)C[C@H]3CO2)ccc(F)c1C#N [Example 162, 6-fluoro-2-methyl-3-[(3R,9aS)-8-{[5-(5-methyl-1H-tetrazol-1-vl)pvridin-2-yl]acetyl}octahydropyrazino[2,1-c][1,4]oxazin-3-yl]benzonitrile]	0.17
